What was measured:
An. albimanus = assay: Minimum Effective Dosage (MED) test on treated cloth, mosquito repellency; format: in vivo, Anopheles albimanus; conditions: Table 4; for An. albimanus Minimum Effective Dosage, Average: mean of 5 volunteers; for An. albimanus Minimum Effective Dosage, M4: subject M4; for An. albimanus Minimum Effective Dosage, M4 / An. albimanus Minimum Effective Dosage, M5 / An. albimanus Minimum Effective Dosage, M8 / An. albimanus Minimum Effective Dosage, M9 / An. albimanus Minimum Effective Dosage, M10: highest concentration 1.500 mg/cm^2; for An. albimanus Minimum Effective Dosage, M5: subject M5; for An. albimanus Minimum Effective Dosage, M8: subject M8; for An. albimanus Minimum Effective Dosage, M9: subject M9; for An. albimanus Minimum Effective Dosage, M10: subject M10
female Aedes aegypti = assay: Knock down (KD) after forced contact with treated muslin cloth (insecticidal properties); format: in vivo; conditions: 2 min forced exposure to treated cloth
Method: The minimum effective dosage (MED) for repellency of 99% of mosquitoes was determined by wearing treated muslin cloth with varying concentrations of the chemical. At a surface concentration of 0.011 mg/cm^2, nearly all mosquitoes are repelled from the surface. The insecticidal properties required a much higher concentration of 2. All tests were conducted by forcing mosquitoes (5 per replicate×5 replicates) into contact with treated muslin cloth.

Ae. aegypti = assay: MED of varying molar ratios of 2 and DEET (synergistic activity); format: in vivo, Aedes aegypti; conditions: Table 6, molar ratio 2:DEET; for Ae. aegypti Minimum Effective Dosage, Average: mean of 3 volunteers; for Ae. aegypti Minimum Effective Dosage, M4: subject M4; for Ae. aegypti Minimum Effective Dosage, M4 / Ae. aegypti Minimum Effective Dosage, M5 / Ae. aegypti Minimum Effective Dosage, M8: highest dose 4.0 mg/cm2; for Ae. aegypti Minimum Effective Dosage, M5: subject M5; for Ae. aegypti Minimum Effective Dosage, M8: subject M8
Method: Minimum Effective Dosage (MED) Test: The MED bioassays on treated cloth were a method of screening to determine the minimum amount of a repellent needed to prevent bites. Experimental compounds were prepared in solution by combining 0.15 g of experimental chemical with 2 mL of acetone in a 7.1 mL screwtop glass vial. […] The standard N,N-diethyl-3-methylbenzamide (DEET) was also tested at the same concentration levels to serve as a control and a comparison for relative repellency. A 50 cm^2 (5 cm×10 cm) patch of muslin cloth was rolled lengthwise and placed into each of the glass vials and scaled with a screwtop so it soaked up the solution. Just prior to the experiment, the pieces of treated cloth were removed from the vials, affixed to card stock tabs (5 cm×3 cm) with staples, and hung with masking tape on a rack to dry and allow acetone to evaporate. Volunteers wore a latex glove over their hands, a nylon stocking over their arm, and then wrapped a plastic Velcro-sealed sleeve over their entire forearm with a 32 cm^2 (4 cm×8 cm) window cut-out to allow mosquitoes to bite through. The nylon stocking acted as a barrier between the dried cloth and the skin, an additional precaution with experimental compounds. Dried cloth patches were stretched across the window in the plastic sleeve and held in place with masking tape. Volunteers placed their sleeve-covered arms into a screened cage for a one minute period with approximately 500 female Ae. aegypti mosquitoes that had been preselected for host-seeking behavior using a draw box (Posey, K. H., and C. E. Schreck, Mosquito News, 41: 566-568 (1981)). […] The MED recorded was the lowest passing concentration level tested for the experimental compound. […] All human volunteers in the study provided informed consent to participate of a protocol approved by the University of Florida Human Use Institutional Review Board (IRB #636-2005).
Compound 2 was also evaluated with DEET for synergistic activity. Test samples were prepared at varying molar ratios of DEET: 2 (1:0-1:[…]) and the MED values were evaluated (Table 6).

SMILES	An. albimanus Minimum Effective Dosage, Average (An. albimanus) [mg/cm^2]	An. albimanus Minimum Effective Dosage, M4 (An. albimanus) [mg/cm^2]	An. albimanus Minimum Effective Dosage, M5 (An. albimanus) [mg/cm^2]	An. albimanus Minimum Effective Dosage, M8 (An. albimanus) [mg/cm^2]	An. albimanus Minimum Effective Dosage, M9 (An. albimanus) [mg/cm^2]	An. albimanus Minimum Effective Dosage, M10 (An. albimanus) [mg/cm^2]	KD100 @ 1 h, surface concentration (female Aedes aegypti; knock down counted after 1 h) [mg/cm^2]	KD100 @ 5 h, surface concentration (female Aedes aegypti; knock down counted after 5 h) [mg/cm^2]	KD100 @ 8 h, surface concentration (female Aedes aegypti; knock down counted after 8 h) [mg/cm^2]	Ae. aegypti Minimum Effective Dosage, Average (Ae. aegypti) [mg/cm^2]	Ae. aegypti Minimum Effective Dosage, M4 (Ae. aegypti) [mg/cm^2]	Ae. aegypti Minimum Effective Dosage, M5 (Ae. aegypti) [mg/cm^2]	Ae. aegypti Minimum Effective Dosage, M8 (Ae. aegypti) [mg/cm^2]
CC1(C)C=Cc2c(CO)cccc2O1 [Compound 2]	0.234	0.047	0.375	0.187	0.375	0.187	15.38	7.69	0.96	0.0260	0.0156	0.0313	0.0313
CCN(CC)C(=O)c1cccc(C)c1 [DEET, N,N-diethyl-3-methylbenzamide, reference compound]	0.025	0.011	0.047	0.023	0.023	0.023	–	–	–	0.0313	0.0313	0.0313	0.0313

From US9763444B2, “Compositions and methods for repelling blood-sucking and biting insects, ticks and mites” (The United States of America, as represented by the …, priority 2013, dated 2017)
